# Results as given in patent US20250042969A1, “ANTIGEN DISCOVERY FOR T CELL RECEPTORS ISOLATED FROM PATIENT TUMORS RECOGNIZING WILD-TYPE ANTIGENS AND POTENT PEPTIDE MIMOTOPES” (The Board of Trustees of the Leland Stanford Junior …, priority 2017, published 2025).
# No end group written: not given here.
# Key:
# NKI2 = experiment: IFNγ production by NKI2-transduced peripheral blood lymphocytes with peptide-pulsed JY cells; type: cell-based, human; conditions: 1:1 with peptide-pulsed JY cells, 5-hour incubation, intracellular staining
# Method: CDK4-specific TCRs clone 10 (NKI1) and 17 (NKI2) were derived from TILs of a melanoma patient that were screened with HLA multimers loaded with predicted neoantigens, essentially as described. The variable parts of both TCRs were cloned into a retroviral vector encoding the murine TCR α and β constant domains. FLYRD18 packaging cells were plated in 10 cm dishes at 1.2×10^6 cells/well. After one day, cells were transfected with 10 μg retroviral vector DNA encoding the CDK4 TCRs using 25 μl X-tremeGENE HP DNA (Sigma-Aldrich). After 48 hrs, retroviral supernatant was isolated and transferred to retronectin-coated 24-well plates and centrifuged for 90 minutes at 430 g. PBMCs were activated and selected with anti-CD3/CD28 beads (ThermoFisher) at a bead-to-cell ratio of 3:1. Forty-eight hours after stimulation, T cells were plated at 0.5×10^6 cells/mL on virus-coated plates. Surface expression of the introduced CDK4 TCRs on transduced T cells was measured using APC labeled CDK4 R>L HLA-A*02:01 tetramers in combination with anti-murine VB TCR-PE labeled antibody (BD Biosciences). Cells were analyzed using a FACSCalibur (Becton Dickinson). JY cells were pulsed with the CDK4 peptide or the predicted peptides at the indicated concentrations for 1 hr at 37° C. and then washed two times. […]
# TCR 4B = experiment: CD69 activation of SKW-3 T cells expressing TCR 4B co-cultured with peptide-pulsed T2 cells; conditions: T2 cells pulsed with 100 μM peptide 3 hours, co-incubated 18 hours, flow cytometry
# Excerpt: Measuring T cell activation in co-culture assays. The four TCRs identified from the colorectal cancer patients that selected peptides from the library were cloned into a MSCV-based vector pMIG II in α-P2A-β configuration using the wildtype signal peptides of the TCR variable genes and full length, unmodified constant regions. The P2A skip sequence allows for 1:1 stoichiometric expression of the TCRs. A MSCV-based vector pMIG II was also used to generate human CD3 in the format of δ-F2A-γ-T2A-ε-P2A-ζ. A packaging vector pCL10A was used to incorporate env, gag, and pol to allow for human mammalian tropism and viral generation. The vectors introduced puromycin and zeocin selectivity into infected cells. […] The viruses were generated using X-tremeGENE 9 DNA transfection reagent (Sigma-Aldrich) in serum-free DMEM. In cell culture, 2% FBS DMEM was used to recover the cells and media was changed at 12 hours. […] The 2 mL virus of TCR and 2 mL virus of human CD3 was used to co-infect 2×10^6 SKW-3 cells with 5 ug/mL polybrene (Millipore) by spinning for 2 hrs at 2500 rpm at 32° C. The virus was removed and replaced with media and cells cultured. The transduced SKW-3 cells were cultured after 2-3 days in 20 ug zeocin and 1 ug puromycin indefinitely to select for TCR and human CD3 co-expression. Cells were then co-stained for TCR (IP26, BioLegend) and human CD3 (UCHT1, BioLegend) and sorted on the SH800 cell sorter (Sony Biotechnology Inc.).
# The transduced SKW-3 cells were co-cultured with TAP-deficient T2 cells in a 2:1 ratio with various peptide dilutions. The top 5 synthetic peptides isolated from the yeast-display selections were tested along with predictions determined from the 3 prediction algorithms. Peptides were synthesized to >70% purity (Genscript) (Elim Biopharm) and resuspended in dimethylsulfoxide to 20 mM and stored at −20° C. CD69 (FN50, BioLegend) was measured at 18 hours to detect early T cell activation by flow cytometry using the Accuri C6 (BD Biosciences). SKW-3 T cells were detected by UCHT1 staining and checked for TCR and CD3 expression. T2 cells were checked for HLA-A*02 expression by antibody (BB7.2, BioLegend). Data was analyzed using FlowJo version 10 (FlowJo, LLC) and samples were gated on SKW-3 cells by forward and side scatter and UCHT1+ cells followed by analysis for CD69 expression. Experiments were done in biological triplicate and technical triplicate. P-values were calculated by ordinary one-way ANOVA in Prism and experiments plotted with either standard deviation or standard error of the mean as indicated.
# T-cell stimulation assays using SKW-3 cells. Data is analyzed using Flowjo to gate SKW-3 cells and CD3^+ group to identify T cells. T cells are then gated on CD69 expression using the negative control (no peptide). The median MFI expression of CD69 in the CD3^+ group and the percentage of cells expressing CD69 have been analyzed. One-way ordinary ANOVA was determined for both analyses using Prism in comparison to the negative control (no peptide). The 100 μM peptide stimulation is completed in biological and technical triplicate. Only one of the biological triplicates is shown. The peptide titration experiments were done in biological triplicate. All biological triplicates were analyzed collectively.
# TCR 2A [1] = experiment: CD69 activation of SKW-3 T cells expressing TCR 2A co-cultured with peptide-pulsed T2 cells; conditions: T2 cells pulsed with 100 μM peptide 3 hours, co-incubated 18 hours, flow cytometry
# Target sequence in this assay (as listed by the source): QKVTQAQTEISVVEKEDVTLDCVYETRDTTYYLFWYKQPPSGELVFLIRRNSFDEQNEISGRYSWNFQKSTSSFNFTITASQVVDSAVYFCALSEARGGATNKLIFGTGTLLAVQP
# Target sequence in this assay (P61769 21-119): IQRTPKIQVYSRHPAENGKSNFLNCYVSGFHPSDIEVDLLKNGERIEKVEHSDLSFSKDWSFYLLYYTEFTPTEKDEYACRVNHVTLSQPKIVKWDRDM
# Target sequence in this assay (as listed by the source): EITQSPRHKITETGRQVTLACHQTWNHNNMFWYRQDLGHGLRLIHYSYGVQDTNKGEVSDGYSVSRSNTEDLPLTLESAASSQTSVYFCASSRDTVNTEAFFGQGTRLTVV
# Excerpt: (§2) Measuring T cell activation in co-culture assays. The four TCRs identified from the colorectal cancer patients that selected peptides from the library were cloned into a MSCV-based vector pMIG II in α-P2A-β configuration using the wildtype signal peptides of the TCR variable genes and full length, unmodified constant regions. The P2A skip sequence allows for 1:1 stoichiometric expression of the TCRs. A MSCV-based vector pMIG II was also used to generate human CD3 in the format of δ-F2A-γ-T2A-ε-P2A-ζ. A packaging vector pCL10A was used to incorporate env, gag, and pol to allow for human mammalian tropism and viral generation. […]
# (§3) The transduced SKW-3 cells were co-cultured with TAP-deficient T2 cells in a 2:1 ratio with various peptide dilutions. The top 5 synthetic peptides isolated from the yeast-display selections were tested along with predictions determined from the 3 prediction algorithms. […] CD69 (FN50, BioLegend) was measured at 18 hours to detect early T cell activation by flow cytometry using the Accuri C6 (BD Biosciences). SKW-3 T cells were detected by UCHT1 staining and checked for TCR and CD3 expression. […] Data was analyzed using FlowJo version 10 (FlowJo, LLC) and samples were gated on SKW-3 cells by forward and side scatter and UCHT1+ cells followed by analysis for CD69 expression. […]
# (§4) T-cell stimulation assays using SKW-3 cells. […] All biological triplicates were analyzed collectively.
# TCR 3B [2] = experiment: CD69 activation of SKW-3 T cells expressing TCR 3B co-cultured with peptide-pulsed T2 cells; conditions: T2 cells pulsed with 100 μM peptide 3 hours, co-incubated 18 hours, flow cytometry
# Target sequence in this assay (as listed by the source): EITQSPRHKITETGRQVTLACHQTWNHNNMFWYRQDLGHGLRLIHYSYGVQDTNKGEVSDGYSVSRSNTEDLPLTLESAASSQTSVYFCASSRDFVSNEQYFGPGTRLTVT
# Target sequence in this assay (P61769 21-119): as the sequence (P61769 21-119) above
# Excerpt: as §2, §3, §4
# TCR 2A [3] = experiment: TCR 2A tetramer staining of yeast expressing single-chain peptide-HLA-A*02:01; type: binding, human; conditions: 400 nM TCR tetramer
# Method: (§1) Individual yeast clones isolated from the selections or competent yeast electroporated with reconstructed peptide-HLA constructs identified from the deep sequencing were stained with 400 nM TCR tetramer labeled with SA-647 or SA-647 alone in combination with anti-epitope tag.
# Target sequence in this assay (as listed by the source): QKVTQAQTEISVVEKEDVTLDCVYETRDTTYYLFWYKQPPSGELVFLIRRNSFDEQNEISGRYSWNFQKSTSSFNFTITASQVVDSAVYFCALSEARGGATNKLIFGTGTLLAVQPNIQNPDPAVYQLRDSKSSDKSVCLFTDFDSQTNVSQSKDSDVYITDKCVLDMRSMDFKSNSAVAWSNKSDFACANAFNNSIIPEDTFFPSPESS
# Target sequence in this assay (as listed by the source): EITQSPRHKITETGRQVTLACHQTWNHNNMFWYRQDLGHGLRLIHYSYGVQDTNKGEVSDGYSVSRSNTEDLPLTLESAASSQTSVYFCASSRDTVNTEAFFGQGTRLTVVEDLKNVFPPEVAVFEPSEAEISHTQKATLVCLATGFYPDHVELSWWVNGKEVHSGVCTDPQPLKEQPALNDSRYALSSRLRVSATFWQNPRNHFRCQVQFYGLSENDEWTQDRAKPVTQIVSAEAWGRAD
# TCR 3B [4] = experiment: TCR 3B tetramer staining of yeast expressing single-chain peptide-HLA-A*02:01; type: binding, human; conditions: 400 nM TCR tetramer
# Method: as §1
# Target sequence in this assay (as listed by the source): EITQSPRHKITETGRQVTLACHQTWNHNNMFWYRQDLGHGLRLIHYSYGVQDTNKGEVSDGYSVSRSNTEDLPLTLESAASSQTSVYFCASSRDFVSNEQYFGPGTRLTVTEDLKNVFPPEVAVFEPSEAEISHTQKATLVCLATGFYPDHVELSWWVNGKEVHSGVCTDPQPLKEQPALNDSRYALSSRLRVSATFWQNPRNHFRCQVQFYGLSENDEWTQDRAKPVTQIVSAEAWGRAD
# [5] = tested on: SKW-3 cells expressing TCR2A; experiment: pHLA tetramer staining of SKW-3 cells expressing TCR2A; type: binding, human
# [6] = tested on: SKW-3 cells expressing TCR 3B; experiment: pHLA tetramer staining of SKW-3 cells expressing TCR 3B; type: binding, human
substance,measurement,setting,value
ALDSRSEHFM [top peptide mimotope selected by NKI2],IFNγ production by NKI2 transduced T cells,NKI2,stimulated these cells as potently as the CDK4 neoantigen
KLEQLDWTV,CD69 activation of TCR 4B T cell line,TCR 4B,stimulated
LLEDLDWDV,CD69 activation of TCR 4B T cell line,TCR 4B,stimulated
MMDFFNAQM,CD69 activation of TCR 2A T cell line,TCR 2A [1],found to stimulate T cells
same,CD69 activation of TCR 3B T cell line,TCR 3B [2],found to stimulate T cells
"MMDFFNAQM-HLA-A*02:01: U2AF2 peptide MMDFFNAQM in complex with HLA-A*02:01, as yeast single-chain trimer or refolded tetramer (not fully specified (C-terminus); also: in complex with HLA-A*02:01 (single-chain trimer or refolded tetramer))",TCR 2A tetramer staining of yeast,TCR 2A [3],lack of TCR tetramer staining
same,TCR 3B tetramer staining of yeast,TCR 3B [4],lack of TCR tetramer staining
same,pHLA tetramer staining of SKW-3 cells expressing TCR2A,[5],failed to stain
same,pHLA tetramer staining of SKW-3 cells expressing TCR 3B,[6],failed to stain
NMEYMTWDV,CD69 activation of TCR 4B T cell line,TCR 4B,stimulated
NVEYYDIKL,CD69 activation of TCR 4B T cell line,TCR 4B,stimulated
TLEELDWCL,CD69 activation of TCR 4B T cell line,TCR 4B,stimulated
TMETIDWKV,CD69 activation of TCR 4B T cell line,TCR 4B,stimulated
VLDFQGQL,CD69 activation of TCR 2A T cell line,TCR 2A [1],able to stimulate the receptor
VLEEVDWLI,CD69 activation of TCR 4B T cell line,TCR 4B,stimulated
